From patent US12252493B2, “Imidazo[1,2-c]pyrimidine derivatives as PRC2 inhibitors for treating cancer” (Mirati Therapeutics, Inc., priority 2019, dated 2025)
Like-named read-outs stand apart in the source and are kept apart here.

Tests used:
[1] = target: purified human, His-tagged PRC2 complex (Homo sapiens (Human), UniProt O75530); test: Hot Spot HMT assay of PRC2 enzymatic activity (tritiated methyl transfer from SAM to core histone); format: biochemical; conditions: 10 nM purified PRC2 complex, 0.05 mg/ml core histone H3, 1 uM 3H-SAM, 1 hr at 30° C.; read-out: IC50, Inhibition of PRC2-mediated Enzymatic Activity
Chain of purified human, His-tagged PRC2 complex (Q15910 whole entry): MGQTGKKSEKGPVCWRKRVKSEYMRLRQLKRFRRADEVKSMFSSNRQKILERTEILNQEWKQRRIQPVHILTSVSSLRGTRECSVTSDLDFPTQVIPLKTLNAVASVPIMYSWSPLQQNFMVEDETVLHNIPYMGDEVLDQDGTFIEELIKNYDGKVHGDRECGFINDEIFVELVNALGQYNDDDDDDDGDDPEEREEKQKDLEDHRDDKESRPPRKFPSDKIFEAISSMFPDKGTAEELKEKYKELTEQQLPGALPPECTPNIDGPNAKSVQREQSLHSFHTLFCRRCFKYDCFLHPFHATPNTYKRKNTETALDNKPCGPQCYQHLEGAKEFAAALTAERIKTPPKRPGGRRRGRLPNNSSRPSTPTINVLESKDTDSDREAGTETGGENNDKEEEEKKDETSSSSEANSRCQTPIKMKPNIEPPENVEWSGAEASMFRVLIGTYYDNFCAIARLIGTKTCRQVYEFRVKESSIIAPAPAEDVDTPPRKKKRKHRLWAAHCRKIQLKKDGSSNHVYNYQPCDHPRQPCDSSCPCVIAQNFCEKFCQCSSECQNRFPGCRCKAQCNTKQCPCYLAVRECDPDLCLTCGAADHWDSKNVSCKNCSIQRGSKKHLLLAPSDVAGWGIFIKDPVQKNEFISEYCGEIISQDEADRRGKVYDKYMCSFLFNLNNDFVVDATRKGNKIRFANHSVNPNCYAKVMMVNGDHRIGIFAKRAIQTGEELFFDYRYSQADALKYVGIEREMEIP
Chain of purified human, His-tagged PRC2 complex (O75530 whole entry): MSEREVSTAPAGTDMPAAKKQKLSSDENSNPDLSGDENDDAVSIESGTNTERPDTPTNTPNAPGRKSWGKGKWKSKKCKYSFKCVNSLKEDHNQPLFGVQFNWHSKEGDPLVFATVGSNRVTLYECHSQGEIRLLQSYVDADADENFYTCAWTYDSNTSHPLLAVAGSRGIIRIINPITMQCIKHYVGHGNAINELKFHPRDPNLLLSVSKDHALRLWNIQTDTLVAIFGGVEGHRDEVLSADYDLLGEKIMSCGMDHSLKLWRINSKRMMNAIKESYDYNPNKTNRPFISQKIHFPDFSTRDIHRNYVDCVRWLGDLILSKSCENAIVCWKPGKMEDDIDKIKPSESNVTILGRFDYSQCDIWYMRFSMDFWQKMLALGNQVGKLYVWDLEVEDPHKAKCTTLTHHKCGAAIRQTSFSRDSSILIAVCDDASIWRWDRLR
Chain of purified human, His-tagged PRC2 complex (Q15022 whole entry partner): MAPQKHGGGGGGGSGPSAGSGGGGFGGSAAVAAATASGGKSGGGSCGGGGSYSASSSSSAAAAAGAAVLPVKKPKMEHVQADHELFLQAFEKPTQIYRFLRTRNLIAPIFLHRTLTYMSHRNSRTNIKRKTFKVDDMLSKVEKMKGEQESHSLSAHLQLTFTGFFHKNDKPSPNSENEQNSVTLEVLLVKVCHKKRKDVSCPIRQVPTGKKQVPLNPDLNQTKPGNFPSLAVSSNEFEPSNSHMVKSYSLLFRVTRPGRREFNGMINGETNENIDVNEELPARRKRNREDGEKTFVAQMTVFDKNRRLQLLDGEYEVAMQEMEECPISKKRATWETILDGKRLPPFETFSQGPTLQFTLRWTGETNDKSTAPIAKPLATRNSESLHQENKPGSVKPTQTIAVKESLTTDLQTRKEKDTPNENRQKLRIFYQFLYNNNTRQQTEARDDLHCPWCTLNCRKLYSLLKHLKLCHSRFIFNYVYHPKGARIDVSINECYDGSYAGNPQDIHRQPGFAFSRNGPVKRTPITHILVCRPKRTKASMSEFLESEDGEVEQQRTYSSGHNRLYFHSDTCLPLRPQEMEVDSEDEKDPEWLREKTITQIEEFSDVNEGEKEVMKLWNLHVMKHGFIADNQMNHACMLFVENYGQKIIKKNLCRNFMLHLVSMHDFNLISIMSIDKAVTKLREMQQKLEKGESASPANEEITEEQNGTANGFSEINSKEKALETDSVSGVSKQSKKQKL
Chain of purified human, His-tagged PRC2 complex (Q6ZN18 whole entry partner): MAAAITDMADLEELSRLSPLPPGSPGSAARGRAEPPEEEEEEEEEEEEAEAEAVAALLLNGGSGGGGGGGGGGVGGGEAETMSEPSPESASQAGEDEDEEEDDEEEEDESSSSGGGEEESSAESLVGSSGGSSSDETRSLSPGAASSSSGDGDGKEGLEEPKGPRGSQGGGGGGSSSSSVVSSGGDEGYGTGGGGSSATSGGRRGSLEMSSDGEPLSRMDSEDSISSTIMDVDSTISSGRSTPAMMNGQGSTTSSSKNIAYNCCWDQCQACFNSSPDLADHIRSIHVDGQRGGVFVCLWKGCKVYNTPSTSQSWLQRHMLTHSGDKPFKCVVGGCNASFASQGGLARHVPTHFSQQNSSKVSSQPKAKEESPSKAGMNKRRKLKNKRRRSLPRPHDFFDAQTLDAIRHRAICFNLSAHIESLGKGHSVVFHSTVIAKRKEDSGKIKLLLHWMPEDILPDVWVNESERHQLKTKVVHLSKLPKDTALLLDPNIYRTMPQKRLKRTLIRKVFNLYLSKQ
Chain of purified human, His-tagged PRC2 complex (Q09028 whole entry partner): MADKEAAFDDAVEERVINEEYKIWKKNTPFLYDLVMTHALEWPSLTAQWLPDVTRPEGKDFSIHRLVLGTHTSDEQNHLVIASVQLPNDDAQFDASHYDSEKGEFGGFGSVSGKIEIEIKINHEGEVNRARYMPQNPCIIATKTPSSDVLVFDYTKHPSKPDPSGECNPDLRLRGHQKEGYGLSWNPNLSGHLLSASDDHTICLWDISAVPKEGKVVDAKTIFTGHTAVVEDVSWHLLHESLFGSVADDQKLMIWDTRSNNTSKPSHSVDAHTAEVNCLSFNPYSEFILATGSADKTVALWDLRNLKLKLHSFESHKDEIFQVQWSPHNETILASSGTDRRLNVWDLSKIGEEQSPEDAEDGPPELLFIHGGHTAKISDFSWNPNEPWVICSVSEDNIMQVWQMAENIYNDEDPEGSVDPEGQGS
Procedure, shortened: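 10 nM His-tagged five-subunit PRC2 complex (EZH2, EED, SUZ12, AEBP2, RbAp48) with 0.05 mg/ml core histone H3 in pH 8 Tris buffer, 1% DMSO, preincubated with compound 20 min at 30° C; reaction started with 1 uM [3H]-SAM, 1 hr at 30° C. Filter binding plus scintillation counting; IC50 from 10-point, three-fold dilutions starting at 1.0 μM.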

[2] = test system: PRC2-mediated histone H3 methylation (H3 Lys27 trimethylation) in Pfeiffer cells expressing mutant EZH2 (A677G); test: Tri-Methyl Histone H3 (Lys 27) sandwich ELISA in Pfeiffer cells; format: cell-based, human; conditions: Pfeiffer cells, 96 hours incubation, ELISA, read-out: IC50, Inhibition of EZH2-mediated Histone H3 Trimethylation
Procedure, shortened: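 Pfeiffer DLBCL cells carrying EZH2 A677G were treated for 96 h at 37 °C with 3-fold dilutions, 1 μM to 0.15 nM final. Acid-extracted histones, neutralized, went into a sandwich ELISA for H3K27me3 with HRP/TMB read-out at 450 nm. Values binned A ≤250 nM, B >250–≤500 nM, C >500 nM–≤5 μM.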

[3] = test system: Karpas 422 cells expressing mutant EZH2 (Y641N); test: Karpas 422 cell viability (Cell Titre Glo) assay; format: cell-based, human; conditions: CTG viability, time point (Day 4, Day 7 or Day 11) not given, read-out: IC50, Inhibiting Proliferation of Cells Expressing an Activating Mutant Form of EZH2
Procedure, shortened: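 Cells plated at 1000/well were exposed to final concentrations from 10 μM down to 1.5 nM (3-fold steps) at 37° C. Viability was read by CellTiter-Glo on day 4, 7 or 11; day-11 plates were re-fed with compound on day 7. IC50 reported per time point in binned ranges.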

Structure (SMILES) | IC50 [1] | IC50 ([2]; Homo sapiens) | IC50 ([3]; Homo sapiens) | IC50 [2] | IC50 [3]
Cc1cccc(-c2cnc(NCc3c(F)ccc4c3CCO4)n3cc(CN)nc23)c1 [Example 21, 2-(aminomethyl)-N-((5-fluoro-2,3-dihydrobenzofuran-4-yl)methyl)-8-(m-tolyl)imidazo[1,2-c]pyrimidin-5-amine] | 500 to 2000 nM | 500 to 5000 nM | 500 to 5000 nM |  | 
Cc1cc(S(C)(=O)=O)ccc1-c1cnc(NCc2c(F)ccc3c2CCO3)n2cc(C(C)N)nc12 (stereo not drawn) [Example 34, 2-(1-aminoethyl)-N-((5-fluoro-2,3-dihydrobenzofuran-4-yl)methyl)-8-(2-methyl-4-(methylsulfonyl)phenyl)imidazo[1,2-c]pyrimidin-5-amine] | < 250 nM | < 250 nM | < 250 nM |  | 
Cc1cc(S(C)(=O)=O)ccc1-c1cnc(NCc2c(F)ccc3c2CCO3)n2cc(CN)nc12 [Example 13, 2-(aminomethyl)-N-((5-fluoro-2,3-dihydrobenzofuran-4-yl)methyl)-8-(2-methyl-4-(methylsulfonyl)phenyl)imidazo[1,2-c]pyrimidin-5-amine] | < 250 nM | < 250 nM | < 250 nM |  | 
Cn1nccc1-c1cnc(NCc2c(F)ccc3c2CCO3)n2cc(CN3CCC3)nc12 [Example 29, 2-(azetidin-1-ylmethyl)-N-((5-fluoro-2,3-dihydrobenzofuran-4-yl)methyl)-8-(1-methyl-1H-pyrazol-5-yl)imidazo[1,2-c]pyrimidin-5-amine] | 500 to 2000 nM | 500 to 5000 nM | 500 to 5000 nM |  | 

Results, then the molecule that gave them:

IC50 [1] | IC50 ([2]; Homo sapiens) | IC50 ([3]; Homo sapiens) | IC50 [2] | IC50 [3] | Structure (SMILES)
500 to 2000 nM | 250 to 500 nM | < 250 nM |  |  | Cc1cc(-c2cnc(NCc3c(F)ccc4c3CCO4)n3cc(CNCc4ccccc4)nc23)n(C)n1 [Example 32, 2-((benzylamino)methyl)-8-(1,3-dimethyl-1H-pyrazol-5-yl)-N-((5-fluoro-2,3-dihydrobenzofuran-4-yl)methyl)imidazo[1,2-c]pyrimidin-5-amine]
500 to 2000 nM | 500 to 5000 nM | 500 to 5000 nM |  |  | Cc1cc(-c2cnc(NCc3c(F)ccc4c3CCO4)n3cc(CN4CC(O)C4)nc23)n(C)n1 [Example 31, 1-((8-(1,3-dimethyl-1H-pyrazol-5-yl)-5-(((5-fluoro-2,3-dihydrobenzofuran-4-yl)methyl)amino)imidazo[1,2-c]pyrimidin-2-yl)methyl)azetidin-3-ol]
< 250 nM |  |  | < 250 nM | < 250 nM | Cc1cc(-c2cnc(NCc3c(F)ccc4c3CCO4)n3cc(C(C)N)nc23)n(C)n1 (single isomer, unassigned) [Example 12, 2-(1-aminoethyl)-8-(1,3-dimethyl-1H-pyrazol-5-yl)-N-((5-fluoro-2,3-dihydrobenzofuran-4-yl)methyl)imidazo[1,2-c]pyrimidin-5-amine]
< 250 nM | < 250 nM | < 250 nM |  |  | Cc1cc(-c2cnc(NCc3c(F)ccc4c3CCO4)n3cc(C(N)C4CC4)nc23)n(C)n1 (stereo not drawn) [Example 41, 2-(amino(cyclopropyl)methyl)-8-(1,3-dimethyl-1H-pyrazol-5-yl)-N-((5-fluoro-2,3-dihydrobenzofuran-4-yl)methyl)imidazo[1,2-c]pyrimidin-5-amine]
